Results: patent US5741643A, “Oligonucleotide clamps” (Lynx Therapeutics, Inc., priority 1995, dated 1998)

Experiments:
[1] = tested on: target polynucleotide 5'-[…]-3' (pol and nef genes of HIV); test: Melting temperature of oligonucleotide clamp/target polynucleotide complex (260 nm absorption v. temperature curve); assay type: binding; details: half maximum of the 260 nm absorption v. temperature curve
Protocol: Preferably, stability of oligonucleotide clamp/target polynucleotide complexes are determined by way of melting, or strand dissociation, curves. The temperature of fifty percent strand dissociation is taken as the melting temperature, Tm, which, in turn, provides a convenient measure of stability. Tm measurements are typically carried out in a saline solution at neutral pH with target and clamp concentrations at between about 1.0-2.0 μM. Typical conditions are as follows: 150 mM NaCl and 10 mM MgCl2 in a 10 mM sodium phosphate buffer (pH 7.0) or in a 10 mM Tris-HCl buffer (pH 7.0); or like conditions. Data for melting curves are accumulated by heating a sample of the oligonucleotide clamp/target polynucleotide complex from room temperature to about 85°-90° C. As the temperature of the sample increases, absorbance of 260 nm light is monitored at 1° C. intervals, e.g. using a Cary (Australia) model 1E or a Hewlett-Packard (Palo Alto, Calif.) model HP 8459 UV/VIS spectrophotometer and model HP 89100A temperature controller, or like instruments.
The oligonucleotides and oligonucleotide clamps listed in the Table I below were synthesized in accordance with Example 1 for specific binding to the following single stranded or double stranded target polynucleotides:
The melting temperature of the following compounds were determined by computing the half maximum of the 260 nm absorption v. temperature curve, as described above: DL015:39.0° C.; DL014: 58° C.; DL013: 68.0° C.; DL021: 67.5° C.; DL022: 67.5° C.; and control (two unconnected oligonucleotides without binding moieties having sequences: 3'-TTTTCTTTTCCCCCCT-5' and 5'-TTTTC^Me TTTT(C^Me)6-3'): 32.0° C.

[2] = tested on: HIV (infected ATH8 cells); test: ATH8 cell assay: inhibition of the cytopathic (lytic) effects of HIV infection on ATH8 cells; assay type: cell-based; details: 2 μM and 8 μM
Protocol: (§1) Each of the compounds of Table I were tested in an ATH8 cell assay to assess the inhibition of the cytopathic effects of HIV infection on the ATH8 cells. The ATH8 assay is described in the following reference: Matsukura, pages 285-304 in Antisense RNA and DNA (Wiley-Liss, New York, 1992).
(§2) The cytopathic effect examined in the assay was the lytic effect of HIV and/or drug on the ATH8 cells. A measure of the degree of viral activity is the degree to which cells are lysed at the end of a given time period in culture. Protection against lysis is measured by the size of pellet formed after cells are harvested from culture and centrifuged, as described in the references cited above.
(§3) Curves 1 and 2 illustrate results from positive and negative controls, i.e. curve 1 illustrates the results for uninfected ATH8 cells without drug (negative control) and curve 2 illustrates the results for infected ATH8 cells without drug (positive control). Curves 3 and 4 illustrate results from cultures containing 8 μM of oligonucleotide clamp in infected and uninfected ATH8 cells, respectively. Curves 5 and 6 illustrate results from cultures containing 2 μM of oligonucleotide clamp in infected and uninfected ATH8 cells, respectively.

[3] = tested on: ATH8 cells; test: Toxicity to ATH8 cells in the ATH8 cell assay; assay type: cell-based; details: 2 μM and 8 μM
Protocol: as §1, §2, §3

| Substance | melting temperature [1] | change in pellet size versus time (FIG. 3), effect in words [2] | toxicity (FIG. 3), in words [3] |
| --- | --- | --- | --- |
| 5'-Chol-TTTTCTTTTCACACTTTTCTTTTGGGGGGTCACACTCCCCCC-Chol [DL021] | 67.5 °C | – | – |
| 5'-CACTTTTCTTTTGGGGGGTCACACTCCCCCCTTTTCTTTTAC-Chol [DL014] | 58 °C | clear and positive effect at both concentrations | without toxicity |
| 5'-Chol-CACTTTTCTTTTGGGGGGTCACACTCCCCCCTTTTCTTTTAC-Chol [DL013] | 68.0 °C | – | – |
| 5'-Chol-CACTTTTCTTTTCCCCCCTCACACACTCCCCCCTTTTCTTTTAC-Chol [DL022] | 67.5 °C | – | – |
| 5'-CACTTTTCTTTTGGGGGGTCACACTCCCCCCTTTTCTTTTAC (chemistry not given here) [DL015] | 39.0 °C | – | – |
